Measurements from patent publication US20180161295A1, “TREATMENT OF CLOSED HEAD INJURY AND HEMORRHAGIC STROKE WITH HBED” (University of Florida Research Foundation, Incorporated, priority 2014, published 2018).
“Also recorded” adds a separate entry of the source.

Assays:
[1] = Toxicokinetics (plasma drug level analysis) in the 28-day i.v. dog study; assay type: in vivo, beagle dogs
Method: Male and female beagle dogs were either infused biweekly with iron dextran to a level of approximately 500 mg iron/kg body weight or held without iron loading during the 2-month pretreatment phase. […] During the treatment period, clinical observations on the animals were made daily after dosing. Body weights were measured before the start of dosing with NaHBED, weekly during the 28-day treatment period, and at study termination when recovery animals were sacrificed; food consumption was measured weekly during the treatment period. Hematology and clinical chemistry parameters, including serum iron parameters, were assessed at Weeks-1, 2, 4, and 8. Urinalysis was performed on bladder urine samples at necropsy. Plasma samples were collected for drug level analysis at selected timepoints after dosing on the first day and 28 days later. Routine ophthalmologic examinations and cardiovascular evaluations were conducted during the week prior to dose administration and during the third and fourth (eye exams) or fourth (cardiology exams) weeks of NaHBED administration. Organ weights were measured at necropsy and organ-to-body and -brain ratios determined. […] Specimens from liver, heart, spleen, lung, kidney, and eye were taken from each dog at necropsy for subsequent tissue analyses of iron and zinc content.

[2] = test system: non-iron-loaded beagle dogs; experiment: 28-day intravenous repeat dose toxicity study, non-iron-loaded (normal) dogs; assay type: in vivo
Method: (§1) 28-Day Intravenous Repeat Dose Toxicity Study of NaHBED in Male and Female Dogs SRI Study.
(§2) Male and female beagle dogs were either infused biweekly with iron dextran to a level of approximately 500 mg iron/kg body weight or held without iron loading during the 2-month pretreatment phase. All dogs were held an additional 2 ½ months before beginning dose administration with N,N′-di(2-hydroxybenzypethylenediarnine-N,N′-diacetic acid, monosodium salt (NaHBED). Groups of 4 male and 4 female dogs that had been iron-loaded received NaHBED at 21.46, 64.38, or 128.76 mg/kg daily in 15-35 min intravenous (i.v.) infusions for 28 consecutive days; a non-iron-loaded group containing the same number of dogs of each sex received 21.46 mg NaHBED/kg/day i.v. during the same period. Vehicle-only control groups of iron-loaded and non-iron-loaded dogs (3 males and 3 females per group) were subjected to the same regimen concurrently. […] During the treatment period, clinical observations on the animals were made daily after dosing. Body weights were measured before the start of dosing with NaHBED, weekly during the 28-day treatment period, and at study termination when recovery animals were sacrificed; food consumption was measured weekly during the treatment period. Hematology and clinical chemistry parameters, including serum iron parameters, were assessed at Weeks-1, 2, 4, and 8. Urinalysis was performed on bladder urine samples at necropsy. Plasma samples were collected for drug level analysis at selected timepoints after dosing on the first day and 28 days later. Routine ophthalmologic examinations and cardiovascular evaluations were conducted during the week prior to dose administration and during the third and fourth (eye exams) or fourth (cardiology exams) weeks of NaHBED administration. Organ weights were measured at necropsy and organ-to-body and -brain ratios determined. Gross and microscopic examination of a complete set of tissues was performed on iron-loaded high dose (128.76 mg/kg/day) and control groups and on non-iron-loaded low dose (21.46 mg/kg/day) and control groups. Specimens from liver, heart, spleen, lung, kidney, and eye were taken from each dog at necropsy for subsequent tissue analyses of iron and zinc content.

[3] = test system: mTBI animals; experiment: Lower limb spasticity (velocity dependent ankle torque and triceps EMG) after weight drop closed head injury (mTBI); assay type: in vivo, rats; settings: 50 mg/kg s.c. 2x per day for 2 weeks, PO Wk-1 and PO Wk-3
Method: Ankle torque, displacement and EMGs are simultaneously recorded and time-locked to onset of dorsiflexion. Velocity dependent ankle torque was tested between 49 and 612 degrees/sec dorsiflexion in awake rats.
These experiments were performed to assess the influence of treatment using NaHBED following mTBI. Fifteen mTBIs were performed as described above, using 450×1.25m weight drop closed head injury. The animals were randomly divided into two groups, control (n=5) and iron chelator (IC) NaHBED treatment (n=10). Beginning on the first day following injury, NaHBED was delivered by subcutaneous injection of 50 mg/kg, 2× per day, for a total dosage of 100 mg/kg/body weight/day. NaHBED 60 mg/ml, was dissolved in deionized, sterilized, iron-free water. The IC was administered every day for 2 weeks. The control animals received equal volume subcutaneous injections of saline.
Spasticity: The influence of treatment was tested by analysis of lower limb spasticity (velocity dependent ankle torque and triceps EMG), in mTBI treated and non-treated mTBI animals. A normal ICT group (Normal HBED) was also included as a treatment control.

[4] = test system: iron-loaded beagle dogs; experiment: 28-day intravenous repeat dose toxicity study, iron-loaded dogs; assay type: in vivo
Method: as §1, §2

[5] = non-iron-loaded dogs, 21.46 mg/kg/day i.v., at necropsy
[6] = non-iron-loaded dogs, 21.46 mg/kg/day i.v., statistically significant for males on Day 15
[7] = repeated daily i.v. doses, iron-loaded beagle dogs, 28 days

O=C([O-])CN(CCN(CC(=O)O)Cc1ccccc1O)Cc1ccccc1O.[Na+] [NaHBED]
total body clearance, Day 28 relative to Day 1 ([1]; daily i.v., Day 28 vs Day 1): correspondingly elevated
volume of distribution, Day 28 relative to Day 1 ([1]; daily i.v., Day 28 vs Day 1): correspondingly elevated
toxicokinetic parameters, iron-loaded versus non-iron-loaded dogs ([1]; same dose level): similar
mobilization and excretion of iron and zinc ([2]; non-iron-loaded dogs, 21.46 mg/kg/day dose level, monosodium salt, 21.46 mg/kg/day): induced mobilization and enhanced excretion; also recorded: clear indication
other effects ([2]; non-iron-loaded dogs, 21.46 mg/kg/day i.v., 28 days): No other effects
iron content of kidneys [2, 5]: dramatic decrease
zinc content of kidneys [2, 5]: dramatic decrease
urine coloration ([2]; non-iron-loaded dogs, 21.46 mg/kg/day i.v., occasionally): slightly red coloration
iron-to-transferrin ratio [2, 6]: apparent elevation
serum iron [2, 6]: apparent elevation
iron and zinc in kidneys, females ([2]; non-iron-loaded female dogs, 21.46 mg/kg/day i.v., at necropsy): virtual absence of either ion
amplitudes of time locked EMGs [3]: significantly lower
amplitudes of velocity dependent ankle torques [3]: significantly lower
histopathologic findings clearly associated with administration ([4]; daily i.v. for 28 days): no histopathologic findings
effects on body weight and food consumption; ophthalmologic, cardiovascular, hematology, clinical chemistry and urinalysis parameters; organ weights or weight ratios ([4]; iron-loaded dogs, daily i.v. for 28 days): no distinguishable effects
observable adverse effects ([4]; iron-loaded dogs, high dose level (128.76 mg/kg/day i.v., 28 days)): emesis and/or diarrhea
mean kidney iron content ([4]; iron-loaded male groups, at necropsy): statistically lower
kidney zinc content ([4]; iron-loaded, high dose level group, at necropsy): statistically lower
urine coloration ([4]; majority of dogs at all dose levels, most of the treatment period): Reddish urine
maximum tolerated dose (MTD) level [4, 7]: > 128.76 mg/kg/day
no observable adverse effect level (NOAEL) [4, 7]: 64.38 mg/kg/day
